Among the data in ChEMBL document CHEMBL4483862, “Open-source discovery of chemical leads for next-generation chemoprotective antimalarials” (2018) are IC50 and IC90 values, retold here.

This test relates to Plasmodium berghei. As to the kind of experiment: Luciferase/luciferin-expressing antifolate-resistant parasites were used to infect a culture of HepG2 cells that were pre-incubated with compounds. Infected hepatocytes emit light due to the luciferase reaction. Assay results are presented as the percent inhibition of light emission compared to control. […]. It counts as functional. As to conditions: sporozoite; for IC90: read-out: LUCIFERASE INFECTION ASSAY - IC90.

Broadly, the IC50 is the concentration needed to halve the response being measured. One may read the IC90 as the concentration at which the effect reaches the 90% level. Take `O=C(O)COc1cc(-c2ccccc2)nc2ccccc12`: the IC90 turned out to be 4.53 µM. In addition, the IC50 (HEPG2TOX_HILL_SLOPE 2.22, HEPG2TOX_R_SQUARED 0.747, PBLUC_HILL_SLOPE 12.7, PBLUC_R_SQUARED 0.342, read-out: LUCIFERASE INFECTION ASSAY - IC50) was found to be 3.81 µM.

In the case of `Oc1ccc(-c2cnc3cnc(-c4ccc(Cl)cc4)cn23)cc1`, the IC90 turned out to be 4.61 µM. Moreover, the 50% inhibitory concentration (IC50) (HEPG2TOX_HILL_SLOPE 2.24, HEPG2TOX_R_SQUARED 0.991, PBLUC_HILL_SLOPE 6.34, PBLUC_R_SQUARED 0.684, read-out: LUCIFERASE INFECTION ASSAY - IC50) came to 3.26 µM.

As for `CCC(C)NC(=O)c1c(NC(=O)c2cc(OC)cc(OC)c2)nc2ccc(C)cn12` (configuration not stated), the IC90 was found to be 2.79 µM. The half-maximal inhibitory concentration (IC50) (HEPG2TOX_HILL_SLOPE 2.24, HEPG2TOX_R_SQUARED 0.668, PBLUC_HILL_SLOPE 45.5, PBLUC_R_SQUARED 0.204, read-out: LUCIFERASE INFECTION ASSAY - IC50) was 2.66 µM.

`O=C(Nc1cccc(C(F)(F)F)c1)Nc1ncc([N+](=O)[O-])s1`: the IC90 was determined as 2.73 µM. Under “HEPG2TOX_HILL_SLOPE 2.24, HEPG2TOX_R_SQUARED 0.981, PBLUC_HILL_SLOPE 1.72, PBLUC_R_SQUARED 0.576, read-out: LUCIFERASE INFECTION ASSAY - IC50”, the half-inhibitory concentration (IC50) came out at 0.759 µM.

For `CCCCn1nc(C(=O)NNC(=O)Nc2ccc([N+](=O)[O-])cc2)c2ccccc2c1=O`, the 90% effect concentration (IC90) is more than 10 µM. In addition, the IC50 (HEPG2TOX_HILL_SLOPE 2.25, HEPG2TOX_R_SQUARED 0.286, read-out: LUCIFERASE INFECTION ASSAY - IC50) was more than 10 µM.

In the case of `Cc1ccsc1/C=N/Nc1ccc([N+](=O)[O-])cc1S(=O)(=O)Nc1ccc(Cl)cc1`, the 90% effect concentration (IC90) is 3.77 µM. The IC50 (HEPG2TOX_HILL_SLOPE 2.24, HEPG2TOX_R_SQUARED 0.991, PBLUC_HILL_SLOPE 12.9, PBLUC_R_SQUARED 0.191, read-out: LUCIFERASE INFECTION ASSAY - IC50) came to 3.18 µM.

As for `Clc1ccc(SCc2cc(N3CCCC3)nc(-c3ccccn3)n2)cc1`, the IC90 stood at 2.94 µM. For the same compound, for the setting “HEPG2TOX_HILL_SLOPE 2.23, HEPG2TOX_R_SQUARED 0.944, PBLUC_HILL_SLOPE 20.5, PBLUC_R_SQUARED 0.394, read-out: LUCIFERASE INFECTION ASSAY - IC50”, the IC50 was determined as 2.64 µM.

In the case of `Cc1ccc2nc(NC(=O)c3cc(F)ccc3F)c(C(=O)NC3CCCC3)n2c1`, the IC90 was found to be 3 µM. The concentration for half-maximal inhibition (IC50) (HEPG2TOX_HILL_SLOPE 2.24, HEPG2TOX_R_SQUARED 0.919, PBLUC_HILL_SLOPE 5.13, PBLUC_R_SQUARED 0.447, read-out: LUCIFERASE INFECTION ASSAY - IC50) was 1.96 µM.

As for `O=C(Nc1nc2ccccn2c1C(=O)NC1CCCC1)c1cc(F)ccc1F`, the 90% effect concentration (IC90) turned out to be 6.63 µM. Further, for the setting “HEPG2TOX_HILL_SLOPE 2.22, HEPG2TOX_R_SQUARED 0.565, PBLUC_HILL_SLOPE 4.18, PBLUC_R_SQUARED 0.45, read-out: LUCIFERASE INFECTION ASSAY - IC50”, the IC50 stood at 3.92 µM.

For `Cc1ccn2cc(C(=O)N3CCN(Cc4ccc(C(F)(F)F)cc4)CC3)nc2c1`, the IC90 was determined as 3.77 µM. The IC50 (HEPG2TOX_HILL_SLOPE 2.22, HEPG2TOX_R_SQUARED 0.687, PBLUC_HILL_SLOPE 18.4, PBLUC_R_SQUARED 0.747, read-out: LUCIFERASE INFECTION ASSAY - IC50) is 3.35 µM.

Regarding `c1ccc2cc(-c3cc4ccccc4[nH]3)ccc2c1`, the 90% effect concentration (IC90) is more than 13.6 µM. For the same compound, the IC50 (HEPG2TOX_HILL_SLOPE 2.23, HEPG2TOX_R_SQUARED 0.773, PBLUC_HILL_SLOPE 13.6, PBLUC_R_SQUARED 0.0646, read-out: LUCIFERASE INFECTION ASSAY - IC50) came to 12.2 µM.

Take `COc1ccc(-n2ncc(C(=O)Nc3nc(-c4ccc5ccccc5c4)cs3)c2C(F)(F)F)nn1`: the IC90 worked out at 2.93 µM. The half-inhibitory concentration (IC50) (HEPG2TOX_HILL_SLOPE 2.25, 10.1, HEPG2TOX_R_SQUARED 0.989, 0.350, PBLUC_HILL_SLOPE 1.53, 1.53, PBLUC_R_SQUARED 0.682, 0.949, read-out: LUCIFERASE INFECTION ASSAY - IC50) was determined as 0.695 µM.

For the compound `Cn1c(-c2ccccc2)nc2cnc(-c3cccc(Cl)c3)cc21`, the IC90 was found to be 3.69 µM. The concentration for half-maximal inhibition (IC50) (HEPG2TOX_HILL_SLOPE 2.23, HEPG2TOX_R_SQUARED 0.754, PBLUC_HILL_SLOPE 11.6, PBLUC_R_SQUARED 0.591, read-out: LUCIFERASE INFECTION ASSAY - IC50) came to 3.06 µM.

Turning to `O=C(Nc1ccccc1C(=O)Nc1nc2ccccc2[nH]1)c1cccs1`, the IC90 is more than 10 µM. Also, the IC50 (HEPG2TOX_HILL_SLOPE 2.23, HEPG2TOX_R_SQUARED 0.95, read-out: LUCIFERASE INFECTION ASSAY - IC50) was more than 10 µM.

For `COc1ccccc1NC(=O)/C=c1\s/c(=C\c2ccc(-c3ccccc3F)o2)c(=O)n1C`, the 90% effect concentration (IC90) was 3.75 µM. Further, the IC50 (HEPG2TOX_HILL_SLOPE 2.21, HEPG2TOX_R_SQUARED 0.937, PBLUC_HILL_SLOPE 21.9, PBLUC_R_SQUARED 0.468, read-out: LUCIFERASE INFECTION ASSAY - IC50) turned out to be 3.39 µM.

Turning to `CN(CC(=O)Nc1ccc(Cl)c(C(F)(F)F)c1)c1nc(CN2CCCCC2)nc2sc3c(c12)CCCC3`, the IC90 came to 9.99 µM. In addition, the half-maximal inhibitory concentration (IC50) (HEPG2TOX_HILL_SLOPE 2.23, HEPG2TOX_R_SQUARED 0.93, PBLUC_HILL_SLOPE 4.09, PBLUC_R_SQUARED 0.44, read-out: LUCIFERASE INFECTION ASSAY - IC50) was 5.84 µM.

For the compound `OCc1ccc(-c2cn3c(-c4ccc5ncccc5c4)cnc3cn2)cc1`, the IC90 is 3.45 µM. Besides, the IC50 (HEPG2TOX_HILL_SLOPE 2.22, HEPG2TOX_R_SQUARED 0.955, PBLUC_HILL_SLOPE 5.03, PBLUC_R_SQUARED 0.612, read-out: LUCIFERASE INFECTION ASSAY - IC50) was determined as 2.23 µM.

Turning to `CC(Sc1nc(-c2ccccc2)c(-c2ccccc2)o1)C(=O)N1CCCC1` (configuration not stated), the IC90 is 1.48 µM. Also, the IC50 (HEPG2TOX_HILL_SLOPE 2.22, HEPG2TOX_R_SQUARED 0.0759, PBLUC_HILL_SLOPE 15.7, PBLUC_R_SQUARED 0.556, read-out: LUCIFERASE INFECTION ASSAY - IC50) was 1.29 µM.

Consider `Cc1cccc(Nc2nc(S(=O)(=O)c3ccc(Cl)cc3)c(Cl)s2)c1`, for which the concentration for an effect of 90% (IC90) is more than 10 µM. For the same compound, the IC50 (HEPG2TOX_HILL_SLOPE 2.2, HEPG2TOX_R_SQUARED 0.986, PBLUC_HILL_SLOPE 2.95, PBLUC_R_SQUARED 0.805, read-out: LUCIFERASE INFECTION ASSAY - IC50) is 5.17 µM.

On to `COc1cc(OC)c(C(=O)/C=C/c2cccc(C#N)c2)cc1Cl`, for which the IC90 is 4.08 µM. Moreover, for the setting “HEPG2TOX_HILL_SLOPE 2.22, HEPG2TOX_R_SQUARED 0.565, PBLUC_HILL_SLOPE 10.9, PBLUC_R_SQUARED 0.489, read-out: LUCIFERASE INFECTION ASSAY - IC50”, the IC50 came to 3.33 µM.

With `O=C(c1ccccc1)C1(c2nc3ccccc3s2)Sc2ccccc2C1=O` (configuration not stated), the IC90 is 7.72 µM. The IC50 (HEPG2TOX_HILL_SLOPE 2.24, HEPG2TOX_R_SQUARED 0.913, PBLUC_HILL_SLOPE 6.06, PBLUC_R_SQUARED 0.741, read-out: LUCIFERASE INFECTION ASSAY - IC50) was 5.37 µM.

`COc1cccc(-c2cc3c(cn2)nc(NCCc2cc(OC)ccc2OC)n3C)c1`: the concentration for an effect of 90% (IC90) turned out to be 0.667 µM. Moreover, the IC50 (HEPG2TOX_HILL_SLOPE 2.25, HEPG2TOX_R_SQUARED 0.767, PBLUC_HILL_SLOPE 1.04, PBLUC_R_SQUARED 0.785, read-out: LUCIFERASE INFECTION ASSAY - IC50) came to 0.0813 µM.

Regarding `O=C(CN(Cc1ccccc1)S(=O)(=O)c1ccc(Cl)cc1)Nc1nnc(C(F)(F)F)s1`, the IC90 was 3.96 µM. Also, the IC50 (HEPG2TOX_HILL_SLOPE 2.23, HEPG2TOX_R_SQUARED 0.869, PBLUC_HILL_SLOPE 13.4, PBLUC_R_SQUARED 0.351, read-out: LUCIFERASE INFECTION ASSAY - IC50) amounted to 3.37 µM.

On to `Clc1cccc(CNc2ncnc3sccc23)c1`, for which the 90% effect concentration (IC90) was 9.83 µM. Besides, under “HEPG2TOX_HILL_SLOPE 2.22, HEPG2TOX_R_SQUARED 0.937, PBLUC_HILL_SLOPE 2.28, PBLUC_R_SQUARED 0.461, read-out: LUCIFERASE INFECTION ASSAY - IC50”, the IC50 came out at 3.76 µM.

Turning to `O=c1[nH]n(-c2ccc(Cl)c(Cl)c2)cc1-c1cccc(Cl)c1`, the 90% effect concentration (IC90) is 5.52 µM. Also, the IC50 (HEPG2TOX_HILL_SLOPE 2.22, HEPG2TOX_R_SQUARED 0.951, PBLUC_HILL_SLOPE 6.3, PBLUC_R_SQUARED 0.659, read-out: LUCIFERASE INFECTION ASSAY - IC50) is 3.89 µM.

Turning to `Clc1ccccc1-c1nc2ccnc(NCCc3ccccn3)c2[nH]1`, the 90% effect concentration (IC90) is more than 10 µM. Moreover, the IC50 (HEPG2TOX_HILL_SLOPE 2.25, HEPG2TOX_R_SQUARED 0.756, PBLUC_HILL_SLOPE 1.33, PBLUC_R_SQUARED 0.656, read-out: LUCIFERASE INFECTION ASSAY - IC50) stood at 5.37 µM.
